For data set [1], the system named is Male Wistar rats. The experiment in a line: Effect of preventing drunken sickness (hangover) after ethyl alcohol administration. Type of data set: in vivo. Conditions: 2 mg/kg oral together with 10 ml/kg of 40 (v/v) % ethyl alcohol. From the text: Male Wistar rats were preliminarily raised for 1 week. Then, the rats of 110 to 120 g in body weight were used. The rats were fasted overnight before the experiment and given neither food nor water during the experiment. The rats were divided into an alcohol single administration group (control group) and a sphingomyelin administration group. Each group contained 5 individuals. […] After administration, the rats were observed until they recovered from drunken symptoms.

Data set [2] has as its system lymphocytes from human milk. Description: Test on promotion of secretory IgA production. Type of data set: cell-based. Conditions: 3 μg added to 3 ml Petri dish; after 7 days. The method, then: 5 ml of aseptically collected human milk was diluted twice with a 10 mM phosphate-buffered saline (PBS, pH 7.2) containing 150 mM NaCl and then layered in a test tube containing 5 ml of a separation solution (mixed solution of 33.4% Conray 400 (manufactured by Daiichi Pharmaceutical Co., Ltd.) and 9% Ficoll (manufactured by Pharmacia) at a ratio of 5:12). After centrifugation at 400×G for 30 minutes, the intermediate layer in which lymphocytes were gathered was collected with a Pasteur pipette. The lymphocytes were dispersed and washed in 10 ml of PBS and then centrifuged at 150×G for 10 minutes. This washing procedure was repeated three times. Then, 12 ml of an RPMI-1640 medium containing insulin (10 μg/ml) and transferrin (5 μg/ml) was added thereto, and the mixture was dispensed in an amount of 3 ml/Petri dish into 3 Petri dishes (A; […]

Data set [3] relates to pigmentation in the back skin of the guinea pigs. The experiment in a line: Anti-pigmentation effect by oral administration (ultraviolet-irradiated skin). Type of data set: in vivo, A-1 guinea pigs. The method, then:
Sphingomyelin was tested for its anti-pigmentation effect by oral administration. The back of female A-1 guinea pigs (body weight: approximately 400 g) was shaved and irradiated with ultraviolet rays (UVA (max. 360 nm): 30.3 kJ/m^2, UVB (max. 312 nm): 4.8 kJ/m^2) once daily for 4 days. […] The oral administration to each group was performed once daily using a sonde, and the guinea pigs were raised for 4 weeks. The sphingomyelin raw material of Example 1 was suspended in 10 g of a saline, and this suspension was orally administered to each of the groups B to D. Influence on pigmentation in the back skin of the guinea pigs in each group was measured with a colorimeter (CHROMA METER CR-200) manufactured by MINOLTA at the start of sample administration and at the completion of sample administration. A lightness recovery rate from the start of sample administration was calculated.

For data set [4], the system named is plaque-forming cells against the sheep red blood cells. Description: Inhibitory effect on antibody production (IgM PFC against sheep red blood cells). Format: in vivo, Lewis rats. To be noted: 2 mg/kg. As to the method: A mechanism under which sphingomyelin inhibits the onset of EAE was studied. […] The spleen was excised from each rat on the 18th day, and a single cell suspension was aseptically prepared therefrom. The red blood cells were removed by a hemolysis method. After washing with an RPMI-1640 medium, a cell suspension was prepared at a cell density of […]. The number of plaque-forming cells against the sheep red blood cells was counted according to the method of Jerne and used as the number of IgM PFC. From the results shown in Table 11, it was confirmed that sphingomyelin has inhibitory activity against antibody production.

The subject of data set [5] is carrageenin-induced edema. The experiment in a line: Carrageenin-induced footpad edema method. Format: in vivo, Wistar rats. Conditions: 100 mg/kg oral; 5 hours after λ-carrageenin injection. As to the method: The anti-inflammatory effect of sphingomyelin was tested by a carrageenin-induced footpad edema method. Specifically, a test subject shown in Table 15 was suspended in an aqueous solution containing 0.5% carboxymethylcellulose and orally administered (100 mg/kg) to male Wistar rats (body weight: 110 to 130 g, 8 individuals per group) according to the method of Winter et al. (Proceedings of the Society for Experimental Biology & Medicine, vol. 111, pp. 554, 1962). […] An aqueous solution containing 0.5% carboxymethylcellulose and no test substance was administered to rats in a control group. A rate of increase in footpad volume (V0) attributed to the injection of λ-carrageenin was measured in the control group in the same way as above. An carrageenin-induced edema inhibition rate (%) was calculated according to the calculation formula: (V0−V1)×100/V0 and used as the anti-inflammatory activity of the test substance. A higher value of this inhibition rate indicates higher anti-inflammatory activity.
Background: Carrageenan injected into the paw causes an acute inflammation.

Data set [6] deals with phototoxic pigmentation caused by treatment with 8MOP. Format: in vivo, female ICR mice. To be noted: for depigmentation / pigmentation grade (Table 12: +3 whitened to −3 evidently blackened): 5% sample, 50 μl once daily. From the text:
An anti-pigmentation effect and the degree of pigmentation (shown in Table 12) produced as a side effect were rated by four-grade evaluation (+: depigmentation effect, −: side effect). […] Moreover, no agent was applied to a control group. […] [table]

For data set [7], the system named is SD rats. Description: Water maze experiment (learning ability). Type of data set: in vivo. Conditions: 2.0% in feed for 10 days. As to the method: The sphingomyelin raw material obtained in Example 1 was used to conduct a water maze experiment for the purpose of examining the influence of orally taken sphingomyelin on learned behavior. […] First, 8-week-old male SD rats (Charles River Laboratories, Japan) were preliminarily raised for 7 days using a standard diet (AIN-93G) and then divided into 3 groups each containing 6 individuals. In this context, the rats were raised under conditions involving room temperature of 24° C., humidity of 60%, and light-dark (12 hour/12 hour) control and were allowed to freely take deionized water. [table] Subsequently, a “water filled multiple T-maze” was prepared by arranging combined T-mazes with 11 choice points in a water tank of 120 cm long, 120 cm wide, and 40 cm deep. A water maze experiment was conducted at a water temperature of 23 to 24° C. according to the method of Ishizaki (Ishizaki, Exp. Anim., vol. 27, pp. 9-12, 1978). First, the rats were separately acclimatized by 5 trials in a straight waterway a day before the test. Next, each rat was given 3 trials in the water maze for 4 consecutive days of the test. The length of time taken to swim from the start to the goal of the water maze was measured.

The values below come from patent publication US8486916B2, “Medicine, food and drink or feed containing sphingomyelin” (Megmilk Snow Brand Co., Ltd., priority 2005, dated 2013).

Where two headings read alike, the source gives them in different places.

Turning to sphingomyelin, the symptoms after administration entry in data set [1] is on record as “only staggering gait”. Also, the “time to recover from drunken symptoms” value in data set [1] (control 5 hours) is not above 1 h. The “IgA content in the culture solution” value in data set [2] was 3.11 µg/mL. Also, the Lightness recovery rate amounted to 48% in data set [3] (2 mg/kg oral once daily for 4 weeks (group B), group A 31); 62% in data set [3] (5 mg/kg oral once daily for 4 weeks (group C)); 78% in data set [3] (10 mg/kg oral once daily for 4 weeks (group D)). In addition, the “lightness recovery rate relative to that in the group A” value in data set [3] (groups B to D versus saline group A, 4-week oral administration) was “up to 2.5 times”. The “Average IgM/10^3 spl with respect to saline-administered control group defined as 100%” value in data set [4] was found to be 20%. Also, the “Average IgM/10^3 spl” value in data set [4] (spleen cells on the 18th day, saline 138) stood at 27. In data set [5], this substance showed an Inhibition rate of 40.2%. For the same substance, the “depigmentation / pigmentation grade (Table 12: +3 whitened to −3 evidently blackened)” value is listed as 0.4 in data set [6] (application period 1 week); 0.8 in data set [6] (application period 2 weeks); 1.2 in data set [6] (application period 3 weeks); 1.1 in data set [6] (application period 4 weeks); 0.9 in data set [6] (application period 5 weeks); 0.3 in data set [6] (application period 6 weeks). Besides, the “depigmentation / pigmentation grade (Table 12: +3 whitened to −3 evidently blackened)” value in data set [6] (application period 7 weeks) and in data set [6] (application period 8 weeks) was 0 each time. In data set [6] (mouse, in vivo), the “side effect (pigmentation) on application” value is “no side effect”. Moreover, the “Length of time taken to swim to goal” value in data set [7] (1st day) amounted to 33 ± 10 s; in data set [7] (2nd day) it was 25 ± 6 s; in data set [7] (3rd day) it was 18 ± 5 s; in data set [7] (4th day) it was 17 ± 6 s.
